One data set deals with Cathepsin L (Homo sapiens, UniProt P07711).
Data set [1] deals with T cell activation from 0404(DR14) chimeric MHCII-mice. Briefly: In vivo inhibition of T cell activation by co-immunisation, DR14 mice immunised with OVA. Also noted: species or system mouse; % Reduction of response to PPD(OVA): concentration or dose not given beside the values. To be noted: for % Reduction of response to OVA: DR14 mice co-immunised with OVA plus compound, mean % inhibition from the control over 3 concentrations of antigen (6.7, 20 and 60 ug); for % Reduction of response to PPD(OVA): specificity control: response to PPD in the same cell pool, OVA co-immunised mice. The text has this: (§1) Mouse strains DR4 and DR14 carry chimeric MHC-II transgenes that encode the N-terminal domains of the respective DR molecules (forming the peptide binding site) and the remaining (2nd extracellular domains, transmembrane and intracytoplasmic domains) of the murine class II molecule I Ed. These strains are deficient of other murine class II, and thus, all helper T cell responses are triggered by peptides presented in the respective human MHC-II binding site. As an initial in vivo test of subject inhibitors designed to bind to DR, DR-transgenic mice were co-immunized with a pre-defined dose of protein antigen and different amounts of the compound antagonist to be tested. In this set-up, both antigen and compound were emulsified together in complete Freund's adjuvant (CFA), and thus, a direct competition between the two components for presentation by DR was tested. Readout of the assay is ex vivo antigen-specific activation of T cells from regional lymph nodes explanted 9 days after co-immunization. In a typical experiment, antigen dose-response was investigated, and the curves from mice immunized with antigen were compared to those from mice co-immunized with antigen+compound. The dose response curves were generated using lymph node cells pooled at equal numbers from 2-3 mice per experimental group. The experimental system also permits assessment of inherent antigenicity of the compound antagonist. This was done by setting up a dose-response study from the same cell pool using different concentrations of the compund under investigation instead of the antigen. As a specificity control, the response to Purified Protein Derivative (PPD), the major protein component of CFA, was tested in the same cell pool.
(§2) All Gpg conataining compounds have significant immunosupressive properties in one or both of the in-vivo models. Gpg-containing compounds also show improved activity or improved specificity over the Arg-containing equivilent. Further, compounds according to Formula I show activity in this assay.
(§3) Compounds of the invention were injected as an Emulsion prepared using CFA (Bacto Adjuvant Complete H37 Ra, Difco, Order-No. 3113-60); proteins 10 mg/ml in PBS, inhibitors 5 μM in 10% DMSO. CFA, PBS, antigen, and inhibitor were placed in the barrel of a 5-ml syringe (total volume not more than 1 mL). The mixture was sonicated at an amplitude less than 40% (30-35%) for two separated 15 s periods. The emulsion should seem to be hard and not liquid at this point. A drop of emulsion placed on the surface of water should not melt. The resulting emulsion was pushed through the needle into a 1 ml syringe with a needle (Gr.18, 26G×1″), and air bubbles were removed. Mice were co-immunized with 50 μg protein and 210 nM compound antagonist in final 100 μl emulsion into the tail base. Antigen+Compound and CFA are mixed 1:1 vol/vol. The best results are obtained using DR 4 mice immunised with HEL and DR 14 mice immunized with OVA.
(§4) Mice were injected at the tail-base as follows: Holding the tail of a mouse with thumb and middle finger, the index finger was placed under the base of the mouse's tail. The needle of the syringe was inserted about 1.5 cm from the tail base (hairy end) under the skin and pushed about 1 cm into the tail. 100 μl emulsion was injected into the mouse. After 9 days, mice were killed and lymph nodes removed.
(§5) The inhibitory effect of the candidate compounds on T-cell activation was tested using T-cells and antigen-presenting cells isolated from the lymph nodes of chimeric DR4-IE transgenic mice (Taconic, USA) previously co-immunized with hen egg lysozyme plus compound, or DR14-IE transgenic mice co-immunized with ovalbumin plus compound according to standard procedures (Adorini et al., 1988, Mueller et al., 1990; Current Protocols in Immunology, Vol. 2, 7.21; Ito et al., 1996). […]

For data set [2], the system named is T cell activation from 0401(DR4) chimeric MHCII-mice. Briefly: In vivo inhibition of T cell activation by co-immunisation, DR4 mice immunised with HEL. Also noted: species or system mouse; % Reduction of response to PPD(HEL): concentration or dose not given beside the values. To be noted: for % Reduction of response to HEL: DR4 mice co-immunised with HEL plus compound, mean % inhibition from the control over 3 concentrations of antigen (6.7, 20 and 60 ug); for % Reduction of response to PPD(HEL): specificity control: response to PPD in the same cell pool, HEL co-immunised mice.
Excerpt: as §1, §2, §3, §4, §5

Data set [3] deals with HLA-DR1 transgenic mice, collagen induced arthritis. Briefly: Collagen induced arthritis (CIA) mouse model for rheumatoid arthritis. The conditions noted are these: compared to solvent as control; s.c. It is filed as in vivo. The procedure: CIA is induced by immunization with type II collagen in HLA-DR1 transgenic mice as described by Rosloniec et al (J. Exp. Med. 1997; 185: 113). After disease onset, mice are treated with compounds at the maximal tolerated dose s.c. for two weeks, and the disease development compared to that in mice treated with solvent only as follows:
Disease Severity Score • 1. Erythema and mild swelling confined to the tarsals or ankle joint • 2. Erythema and mild swelling extending from the ankle to the tarsals • 3. Erythema and moderate swelling extending from the ankle to the metatarsal joints • 4. Erythema and severe swelling encompass the ankle, foot, and digits

The test system of data set [4] is DR4 transgenic mice, EAE induced by MOG. The data set is described as follows: Experimental autoimmune encephalomyelitis (EAE) mouse model for multiple sclerosis. It is filed as in vivo. To be noted: compared to solvent as control; s.c. The procedure: EAE is induced in DR4 transgenic mice by injection of myelin oligodendrocyte glycoprotein (MOG) as described by Ito et al. (1996). After disease onset, mice are treated with compounds and studied as below:
Disease Score • 1. Tail atony • 2. Hind limb weakness • 3. Hind limb paralysis • 4. Hind limb paralysis and fore limb weakness or paralysis • 5. Moribund

Numbered stars: 1 amine (or outer) side, 2 acyl side, 3 side chain; on linkers, the order of the positions; unused ones are H or OH. Square brackets hold non-standard residues; d marks the D form. Peptide text beside a SMILES is read from it. * marks the point of attachment. ξ: configuration not given here. Gly(1-amidinopiperidin-4-yl) = N=C(N)N1CCC([C@H](N)C(=O)O)CC1; X1 = CC(C)c1oc([C@H](CO)N[*:1])nc1C(=O)[*:2]; Pro(3R-Ph) = O=C(O)[C@H]1NCC[C@@H]1c1ccccc1; Tic = O=C(O)[C@@H]1Cc2ccccc2CN1; Cha = N[C@@H](CC1CCCCC1)C(=O)O; NMe(benzyl) = CN(Cc1ccccc1)*; ξDisc = O=C(O)C1NCc2ccccc21; Nle = CCCC[C@H](N)C(=O)O; X2 = OCCOCCN(Cc1ccccc1)*; NHBn = c1ccc(CN*)cc1; X3 = OCCOCCN*

Cathepsin L, sequence (P07711 114-333): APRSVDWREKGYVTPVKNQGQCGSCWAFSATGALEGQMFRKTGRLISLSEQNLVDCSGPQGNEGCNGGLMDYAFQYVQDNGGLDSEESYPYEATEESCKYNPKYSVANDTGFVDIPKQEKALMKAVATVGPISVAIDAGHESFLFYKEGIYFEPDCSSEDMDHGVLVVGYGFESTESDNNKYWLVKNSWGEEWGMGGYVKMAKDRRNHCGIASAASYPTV

`CSCC[C@H](NC(=O)[C@@H]1Cc2ccccc2CN1C(=O)[C@H](CCCNC(=N)N)NC(=O)[C@H](CC1CCCCC1)NC(C)=O)C(N)=O` [Compound P1, Ac-Cha-Arg-Tic-Met-NH2] (Ac-[Cha]R[Tic]M-NH2): the “Stability (Arbitrary units) Cath L 4 h” value at Cathepsin L is 117 Arbitrary units.

Regarding `CSCC[C@H](NC(=O)C1c2ccccc2CN1C(=O)[C@H](CCCNC(=N)N)NC(=O)[C@H](CC1CCCCC1)NC(C)=O)C(N)=O` (stereo partly drawn) [Compound P12-1, Ac-Cha-Arg-Disc-Met-NH2] (Ac-[Cha]R[ξDisc]M-NH2), on Cathepsin L, the “Stability (Arbitrary units) Cath L 4 h” value came out at 101 Arbitrary units.

As for `CSCC[C@H](NC(=O)[C@@H]1Cc2ccccc2CN1C(=O)[C@H](CCCNC(=N)N)NC(=O)[C@H](CC1CCCCC1)NC(C)=O)C(=O)N1CC[C@H](c2ccccc2)[C@H]1C(N)=O` [Compound P31, Ac-Cha-Arg-Tic-Met-βPhPro-NH2] (Ac-[Cha]R[Tic]M[Pro(3R-Ph)]-NH2), the “Stability (Arbitrary units) Cath L 4 h” value at Cathepsin L came to 103 Arbitrary units.

Regarding `CSCC[C@H](NC(=O)C1c2ccccc2CN1C(=O)[C@@H](NC(=O)[C@H](CC1CCCCC1)NC(C)=O)C1CCN(C(=N)N)CC1)C(=O)N1CC[C@H](c2ccccc2)[C@H]1C(=O)N[C@@H](CO)c1nc(C(=O)N(C)C)c(C(C)C)o1` (stereo partly drawn) [Compound P41-1, Ac-Cha-Gpg-Disc-Met-βPhPro-[S(oxaz)L]-NMe2] (Ac-[Cha][Gly(1-amidinopiperidin-4-yl)][ξDisc]M[Pro(3R-Ph)][X1]-NMe2), in data set [1], the “% Reduction of response to OVA” value is 50.1% and the “% Reduction of response to PPD(OVA)” value is given as 21.6%.

For the molecule `CCCC[C@H](NC(=O)[C@@H]1Cc2ccccc2CN1C(=O)[C@H](CCCNC(=N)N)NC(=O)[C@H](CC1CCCCC1)NC(C)=O)C(=O)N1CC[C@H](c2ccccc2)[C@H]1C(=O)N[C@@H](CO)c1nc(C(=O)N(C)C)c(C(C)C)o1` [Compound P51, Ac-Cha-Arg-Tic-Nle-βPhPro-[S(oxaz)L]-NMe2] (Ac-[Cha]R[Tic][Nle][Pro(3R-Ph)][X1]-NMe2), in data set [1], the “% Reduction of response to OVA” value is 43.1% and the “% Reduction of response to PPD(OVA)” value was 3.5%.

In the case of `CCCC[C@H](NC(=O)[C@@H]1Cc2ccccc2CN1C(=O)[C@@H](NC(=O)[C@H](CC1CCCCC1)NC(C)=O)C1CCN(C(=N)N)CC1)C(=O)N1CC[C@H](c2ccccc2)[C@H]1C(=O)N[C@@H](CO)c1nc(C(=O)N(C)C)c(C(C)C)o1` [Compound P53, Ac-Cha-Gpg-Tic-Nle-βPhPro-[S(oxaz)L]-NMe2] (Ac-[Cha][Gly(1-amidinopiperidin-4-yl)][Tic][Nle][Pro(3R-Ph)][X1]-NMe2), in data set [2], the “% Reduction of response to HEL” value was 68.4% and the “% Reduction of response to PPD(HEL)” value worked out at 10.2%. Besides, in data set [1], the “% Reduction of response to OVA” value is given as 56.3% and the “% Reduction of response to PPD(OVA)” value is on record as 26.8%. For the same molecule, the “efficacy in the CIA mouse model for rheumatoid arthritis” value in data set [3] is “Efficacy”. Also, in data set [4], the “efficacy in the EAE mouse model for multiple sclerosis prevention” value is listed as “Efficacy”.

Consider `CSCC[C@H](NC(=O)[C@@H]1Cc2ccccc2CN1C(=O)[C@@H](NC(=O)[C@H](CC1CCCCC1)NC(C)=O)C1CCN(C(=N)N)CC1)C(=O)N1CC[C@H](c2ccccc2)[C@H]1C(=O)N[C@@H](CO)c1nc(C(=O)N(C)C)c(C(C)C)o1` [Compound P60, Ac-Cha-Gpg-Tic-Met-βPhPro-[S(oxaz)L]-NMe2] (Ac-[Cha][Gly(1-amidinopiperidin-4-yl)][Tic]M[Pro(3R-Ph)][X1]-NMe2), for which, in data set [1], the “% Reduction of response to OVA” value came out at 50.3% and the “% Reduction of response to PPD(OVA)” value is given as 28.1%.

Take `CCCC[C@H](NC(=O)[C@@H]1Cc2ccccc2CN1C(=O)[C@@H](NC(=O)[C@H](CC1CCCCC1)NC(C)=O)C1CCN(C(=N)N)CC1)C(=O)NCc1ccccc1` [Compound P68, Ac-Cha-Gpg-Tic-Nle-N(H)Bn] (Ac-[Cha][Gly(1-amidinopiperidin-4-yl)][Tic][Nle]-NHBn): in data set [2], the “% Reduction of response to HEL” value is reported as −3.2% and the “% Reduction of response to PPD(HEL)” value is 25.1%. In data set [1], the “% Reduction of response to OVA” value is recorded as 95.3% and the “% Reduction of response to PPD(OVA)” value was found to be 65.9%.

Regarding `CCCC[C@H](NC(=O)[C@@H]1Cc2ccccc2CN1C(=O)[C@@H](NC(=O)[C@H](CC1CCCCC1)NC(C)=O)C1CCN(C(=N)N)CC1)C(=O)NCCOCCO` [Compound P70, Ac-Cha-Gpg-Tic-Nle-N(H)CH2CH2OCH2CH2OH] (Ac-[Cha][Gly(1-amidinopiperidin-4-yl)][Tic][Nle]-X3), in data set [1], the “% Reduction of response to OVA” value stood at 56.1% and the “% Reduction of response to PPD(OVA)” value is recorded as 52.3%.

For `CCCC[C@H](NC(=O)[C@@H]1Cc2ccccc2CN1C(=O)[C@H](CCCNC(=N)N)NC(=O)[C@H](CC1CCCCC1)NC(C)=O)C(=O)N(C)Cc1ccccc1` [Compound P71, Ac-Cha-Arg-Tic-Nle-N(Me)Bn] (Ac-[Cha]R[Tic][Nle]-{NMe(benzyl)}), in data set [2], the “% Reduction of response to HEL” value is recorded as 78.1% and the “% Reduction of response to PPD(HEL)” value was 62.1%. Also, in data set [1], the “% Reduction of response to OVA” value was found to be 48.8% and the “% Reduction of response to PPD(OVA)” value is 21.8%.

Regarding `CCCC[C@H](NC(=O)[C@@H]1Cc2ccccc2CN1C(=O)[C@@H](NC(=O)[C@H](CC1CCCCC1)NC(C)=O)C1CCN(C(=N)N)CC1)C(=O)N(CCOCCO)Cc1ccccc1` [Compound P101, Ac-Cha-Gpg-Tic-Nle-N(Bn)CH2CH2OCH2CH2OH] (Ac-[Cha][Gly(1-amidinopiperidin-4-yl)][Tic][Nle]-X2), in data set [2], the “% Reduction of response to HEL” value is 49.7% and the “% Reduction of response to PPD(HEL)” value came out at 41.1%.

As to `CSCC[C@H](NC(=O)[C@@H]1Cc2ccccc2CN1C(=O)[C@@H](NC(=O)[C@H](CC1CCCCC1)NC(C)=O)C1CCN(C(=N)N)CC1)C(=O)N(CCOCCO)Cc1ccccc1` [Compound P102, Ac-Cha-Gpg-Tic-Met-N(Bn)CH2CH2OCH2CH2OH] (Ac-[Cha][Gly(1-amidinopiperidin-4-yl)][Tic]M-X2), in data set [2], the “% Reduction of response to HEL” value came out at 41.3% and the “% Reduction of response to PPD(HEL)” value is 31.2%.

(Values after patent US7629318B2, “Immunosuppressant compounds, methods and uses related thereto” (priority 2002, dated 2009).)
